“And” between values parts separate entries of the source, which are not always exact repeats. Identical values can stand only once.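 Each compound was tested at five concentrations against cells in 96-well plates for 48 hours. GI50 marks 50% less growth.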 The source made the active and inactive calls. Cut-off read from the data, not from the text of the source: active = GI50 up to about 1.1 µM and inactive = higher.
Legend:
Test in all cases: growth of human tumour cells (NCI), 48 h
K562 = tested on: K562
NCI-H460 = tested on: NCI-H460
MOLT-4 = tested on: MOLT-4
A549 = tested on: A549
SN12C = tested on: SN12C
OVCAR-8 = tested on: OVCAR-8
HOP-62 = tested on: HOP-62
SK-MEL-28 = tested on: SK-MEL-28
HL-60 = tested on: HL-60
BT-549 = tested on: BT-549
SR = tested on: SR
Hs-578T = tested on: Hs-578T
SF-295 = tested on: SF-295
SK-MEL-5 = tested on: SK-MEL-5
T47D = tested on: T47D
CCRF-CEM = tested on: CCRF-CEM
UACC-62 = tested on: UACC-62
NCI-H23 = tested on: NCI-H23
NCI/ADR-RES = tested on: NCI/ADR-RES
LOX IMVI = tested on: LOX IMVI

Row | Structure (SMILES) | GI50 (K562) | GI50 (NCI-H460) | GI50 (MOLT-4) | GI50 (A549) | GI50 (SN12C) | GI50 (OVCAR-8) | GI50 (HOP-62) | GI50 (SK-MEL-28) | GI50 (HL-60) | GI50 (BT-549) | GI50 (SR) | GI50 (Hs-578T) | GI50 (SF-295) | GI50 (SK-MEL-5) | GI50 (T47D) | GI50 (CCRF-CEM) | GI50 (UACC-62) | GI50 (NCI-H23) | GI50 (NCI/ADR-RES) | GI50 (LOX IMVI)
1 | COc1cccc2c1C(=O)C=CC2=O | 1.32 µM (inactive) | 15.6 µM (inactive) | 0.526 µM (active) | 20 µM (inactive) | 14 µM (inactive) | 3.58 µM (inactive) | 19.9 µM (inactive) | 17.5 µM (inactive) | 0.32 µM (active) | 15.5 µM (inactive) | 0.269 µM (active) | 15.4 µM (inactive) | 15.6 µM (inactive) | 15.3 µM (inactive) | 2.22 µM (inactive) | 281 nM (active) | 10.9 µM (inactive) | 14.8 µM (inactive) | – | –
2 | Brc1cccc(C2ON=C(c3ccccc3)N2C23CC4CC(CC(C4)C2)C3)c1 (configuration not stated) | > 10 µM (inactive) | > 10 µM (inactive) | > 10 µM (inactive) | > 10 µM (inactive) | > 10 µM (inactive) | > 10 µM (inactive) | > 10 µM (inactive) | > 10 µM (inactive) | – | > 10 µM (inactive) | – | > 10 µM (inactive) | > 10 µM (inactive) | > 10 µM (inactive) | > 10 µM (inactive) | > 10000 nM (inactive) | > 10 µM (inactive) | > 10 µM (inactive) | > 10 µM (inactive) | > 10 µM (inactive)
3 | COc1ccc2c(c1)N=C1CSC(c3c(Cl)cccc3[N+](=O)[O-])N1C2 (configuration not stated) | 35.4 µM (inactive) | 20 µM (inactive) | 20 µM (inactive) | 42.8 µM (inactive) | 53.7 µM (inactive) | 46.9 µM (inactive) | > 100 µM (inactive) | 20.5 µM (inactive) | 31 µM (inactive) | 24.7 µM (inactive) | – | 45.4 µM (inactive) | 40.6 µM (inactive) | 19.4 µM (inactive) | 49 µM (inactive) | – | 22.4 µM (inactive) | 45.3 µM (inactive) | 34.5 µM (inactive) | 35.5 µM (inactive)
4 | O=C1N/C(=N/N=C\C(O)C(O)C(O)CO)N/C1=C/c1ccc(Cl)cc1 (configuration not stated) | 27.3 µM (inactive) and 27.2 µM (inactive) | 33.9 µM (inactive) | 18.5 µM (inactive) and 16.3 µM (inactive) | 71.8 µM (inactive) | 69 µM (inactive) and 80.5 µM (inactive) | 44.1 µM (inactive) and 27.7 µM (inactive) | 46.2 µM (inactive) and 40.3 µM (inactive) | > 100 µM (inactive) and 64.6 µM (inactive) | 35.7 µM (inactive) | 30.7 µM (inactive) and 23.9 µM (inactive) | – | 40.1 µM (inactive) and 29 µM (inactive) | 41.5 µM (inactive) | 32 µM (inactive) and 46.6 µM (inactive) | 34.1 µM (inactive) and 21.9 µM (inactive) | 25.8 µM (inactive) and 21.5 µM (inactive) | – | 30.3 µM (inactive) and 42.8 µM (inactive) | 55.5 µM (inactive) and 44.5 µM (inactive) | 40.6 µM (inactive) and 35.5 µM (inactive)
5 | COc1ccc(O)c(/C=N\Nc2ccccc2)c1 | 3.19 µM (inactive) | 4.79 µM (inactive) | 1.39 µM (inactive) | 6.22 µM (inactive) | 29.6 µM (inactive) | 22.1 µM (inactive) | 44.7 µM (inactive) | 25.4 µM (inactive) | 3.17 µM (inactive) | 6.32 µM (inactive) | – | 30.1 µM (inactive) | – | 22.5 µM (inactive) | 0.402 µM (active) | – | 2.6 µM (inactive) | 10.3 µM (inactive) | 18.6 µM (inactive) | 2.44 µM (inactive)
6 | Cc1cc(N(C)C)c2ccccc2[n+]1CCCCCCCCCC[n+]1c(C)cc(N(C)C)c2ccccc21.[O-][Cl+3]([O-])([O-])[O-].[O-][Cl+3]([O-])([O-])[O-] | 0.128 µM (active) | 0.348 µM (active) | 0.687 µM (active) | 0.587 µM (active) | 0.251 µM (active) | 1.07 µM (active) | – | 0.986 µM (active) | 0.275 µM (active) | 0.676 µM (active) | – | 1.52 µM (inactive) | 1.47 µM (inactive) | 0.165 µM (active) | 0.428 µM (active) | 577 nM (active) | 0.989 µM (active) | 0.202 µM (active) | 13.7 µM (inactive) | 0.871 µM (active)
